For one assay, the system named is rumen microbiota. Kind of assay: Gas Production Test, in vitro rumen fermentation model (Example 1). Type of assay: cell-based. Conditions: 15 mg N per flask, 72 hours incubation. The protocol: The in vitro model used to simulate rumen digestion and utilization of the products is the Gas Production Test protocol, adapted for protein digestibility, as described in more detail in the following paragraph.
Approximately 1 liter of rumen fluid was collected from two different rumen-fistulated animals in the morning. Rumen fluid was strained through a cheesecloth, kept at 39° C. under CO2 and then diluted 1:19 with a nitrogen-free buffer and mineral solution containing 10.03 g NaHCO3, 1.43 g Na2HPO4, 1.55 g KH2PO4, 0.15 g MgSO4·7H2O, 0.52 g Na2S, 0.017 g CaCl2·2H2O, 0.015 g MnCl2·4H2O, 0.002 g […], 0.012 g FeCl3·6H2O and 0.125 mg resazurin per liter.
To ensure the rumen fluid was depleted of free nitrogen and to ensure nitrogen would be the limiting factor for the microbial growth at the start of the experiment, the buffered rumen fluid was pre-incubated for 4 hours at 39° C. with a carbohydrate overload of glucose, xylose and soluble starch, each at 3.33 g/l. During this pre-incubation, all nitrogen available in the rumen fluid would be incorporated into bacterial protein and other bacterial nitrogen-containing components.
Each product was weighed into different glass bottles on an isonitrogenous base, providing 15 mg N per flask. Then, 60 ml of the pre-incubated buffered rumen fluid was added, under continuous flushing with CO2. Flasks were closed with rubber stoppers and placed in a shaking water bath with 50 movements per minute at 39° C. to start the incubation period. The gas production of each flask was recorded continuously for 72 hours using a fully automated system. All test products including a blank (i.e. no product added to the flask of rumen fluid) were tested in one run in triplicate.
The cumulative gas production was measured continuously for 72 hours.

In the next assay the test system is ruminal fluid. Kind of assay: in vitro batch culture incubations: VFA, ammonia-N, pH (Example 4). The conditions noted are these: corn silage-based diet. The class given is cell-based, Angus crossbred steers. The method, then: In this example, an in vitro assay was performed using batch culture incubations, aiming to simulate rumen fermentation.
Two ruminally cannulated Angus crossbred steers (808.8±36.3 kg body weight) were used as ruminal fluid donors for the in vitro batch culture incubations. The steers were fed a corn silage and gin trash diet (70% and 30% on a dry matter basis, respectively) ad libitum at least 35 days before collecting ruminal fluid to perform the in vitro incubations. Each steer received a NPN-mixture equivalent to 100 g of urea per day comprised of an equal amount of N from the different NPN sources to adapt the rumen microbial community. Thus, each steer was fed daily 33 g of urea (46 wt. % N) or 37 g of a urea-biuret mixture according to the present disclosure (UB) comprising 41 wt. % N. These amounts were mixed in with the feed diet every two days.
The in vitro batch culture incubations were conducted as a randomized complete block design using 70 wt. % corn silage and 30 wt. % gin trash on a dry matter basis conserving the diet characteristics used during the animal adaptation period. The treatments were designed to be isonitrogenous (=having the same amount of dietary nitrogen) and equivalent to 1 wt. % of urea inclusion. The NPN treatments were consequently as follows: • Control without NPN-supplementation (“control”); • 100 wt % urea (Rumisan®) (“urea”); • 100 wt % of a urea/biuret mixture according to the present application (“UB”).
The in vitro incubations were conducted on three separate days (replicates). A representative sample of digesta was collected from different places in the rumen of ruminally cannulated steers and strained through 4 layers of cheesecloth, placed in pre-warmed thermos containers, and transported to the laboratory within 30 minutes after the collection. In the laboratory, the ruminal fluid from the two steers was maintained under constant CO2-flux and was combined in equal proportions. This combined ruminal fluid was mixed with McDougall's buffer (McDougall, 1948) with and without 0.077 g/liter of 10 wt. % ammonium sulfate enriched with ^15N in relation 1:4, and it was used as an inoculum. Two bottles of 500 ml fitted with a side arm and a rubber septum were incubated per treatment. The bottles contained 5.6 g of substrate dry matter and 400 ml of ^15N enriched inoculum, and were incubated for 24 hours at 39° C. with an agitation of 60 rpm to monitor gas production kinetics using an Ankom Gas Monitoring System from Ankom Technologies, Fairport, New York. Also, one 500-ml bottle without 15N enriched inoculum was incubated to determine the basal ^15N enrichment. At 12 hours of incubation, two samples of 10 ml of rumen fluid were collected from each bottle through the septa port using a 20-ml syringe. These samples were acidified by adding 10 μl of a 20 vol/vol % of H2SO4-solution to each 10-ml sample, and frozen at minus 20° C. until further analysis. At the end of the 24 hours incubation, the final pH was recorded, the bottles were placed on ice to prevent further microbial fermentation and two 10-ml samples were collected and acidified by adding 20 μl of a 20 vol/vol % of H2SO4-solution and were frozen at minus 20° C. until further analysis. The remaining fermentation content was thereafter agitated at 60 rpm for 30 seconds and divided into two subsamples. […]

[1] abbreviates: 12 hours of incubation, equivalent to 1 wt. % urea.

Consider `NC(N)=O` [Urea, urea], for which, in the assay on rumen microbiota, the “maximum gas production rate” value stood at 17 mL/h and the “time after which gas production stopped / maximum cumulative gas production (end level) was reached” value was 30 h. Also, the “lag period of cumulative gas production” value in the assay on rumen microbiota (buffered rumen fluid, 39° C.) is recorded as “approximately 5 hours”. Further, in the assay with ruminal fluid (setting [1]), the Ammonia-N amounted to 2.74 mM and the “Total VFA” value was determined as 31.77 mM. Also, in the assay on ruminal fluid (24 hours of incubation), the Ammonia-N is recorded as 6.55 mM, the “Total VFA” value is 40.96 mM and the pH is on record as 6.38.

The record behind these values is US20250161245A1, “A MIXTURE OF UREA, BIURET AND N-CONTAINING BY-PRODUCTS CREATED DURING BIURET PRODUCTION AS A DIETARY NON-PROTEIN NITROGEN-SOURCE FOR RUMINANTS AND USES THEREOF” (Yara International ASA, priority 2022, published 2025).
